According to ChEMBL document CHEMBL1201862, “PubChem BioAssay data set” (2004):
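Interpolation was linear, between the two tested concentrations surrounding the appropriate level; five concentrations were tested over 48 hours in 96-well plates. Abbreviation: GI50, concentration required for 50% inhibition of growth.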 The source made the active and inactive calls. No stated cut-off is given here; in the data, active = GI50 up to about 1.1 µM and inactive = higher.

Experiments:
Assay in all cases: DTP human tumour cell line panel, 48 h
CAKI-1 = system: CAKI-1
COLO 205 = system: COLO 205
DU-145 = system: DU-145
HCT-15 = system: HCT-15
HL-60 = system: HL-60
HOP-92 = system: HOP-92
KM-20L2 = system: KM-20L2
Malme-3M = system: Malme-3M
NCI-H226 = system: NCI-H226
NCI-H23 = system: NCI-H23
NCI-H460 = system: NCI-H460
NCI-H522 = system: NCI-H522
OVCAR-5 = system: OVCAR-5
RXF 393 = system: RXF 393
SK-MEL-28 = system: SK-MEL-28
SK-MEL-5 = system: SK-MEL-5
SK-OV-3 = system: SK-OV-3
SW-620 = system: SW-620
UO-31 = system: UO-31
BT-549 = system: BT-549

## CN(C=O)/C=C/c1cc(O)ccc1O
CAKI-1
  GI50: 20.3 µM (inactive)
COLO 205
  GI50: 21.3 µM (inactive)
DU-145
  GI50: 33.4 µM (inactive)
HCT-15
  GI50: 36.6 µM
HL-60
  GI50: 14.2 µM (inactive)
HOP-92
  GI50: 19.9 µM (inactive)
KM-20L2
  GI50: > 46 µM (inactive)
Malme-3M
  GI50: 39.4 µM (inactive)
NCI-H226
  GI50: 39.7 µM (inactive)
NCI-H23
  GI50: 36.8 µM (inactive)
NCI-H460
  GI50: > 60.7 µM (inactive)
NCI-H522
  GI50: 4.17 µM (inactive)
OVCAR-5
  GI50: 40.6 µM (inactive)
RXF 393
  GI50: 18 µM (inactive)
SK-MEL-28
  GI50: > 42.1 µM (inactive)
SK-MEL-5
  GI50: 42 µM (inactive)
SK-OV-3
  GI50: > 86.1 µM (inactive)
SW-620
  GI50: 12.8 µM (inactive)
UO-31
  GI50: 32 µM (inactive)

## CC(=O)c1ccc(NC(=O)C(=O)C(C(=O)/C=C/c2ccccc2)C2OC(=O)c3ccccc32)cc1 (stereo unspecified)
CAKI-1
  GI50: > 100 µM (inactive)
COLO 205
  GI50: > 100 µM (inactive)
HCT-15
  GI50: > 100 µM
HL-60
  GI50: > 100 µM (inactive)
HOP-92
  GI50: > 100 µM (inactive)
KM-20L2
  GI50: > 100 µM (inactive)
Malme-3M
  GI50: > 100 µM (inactive)
NCI-H226
  GI50: > 100 µM (inactive)
NCI-H23
  GI50: > 100 µM (inactive)
NCI-H460
  GI50: > 100 µM (inactive)
NCI-H522
  GI50: > 100 µM (inactive)
OVCAR-5
  GI50: > 100 µM (inactive)
RXF 393
  GI50: > 100 µM (inactive)
SK-MEL-28
  GI50: > 100 µM (inactive)
SK-MEL-5
  GI50: > 100 µM (inactive)
SK-OV-3
  GI50: > 100 µM (inactive)
SW-620
  GI50: > 100 µM (inactive)
UO-31
  GI50: > 100 µM (inactive)

## Cc1ccc(NC(=O)CCc2n[nH]c(=S)o2)cc1
CAKI-1
  GI50: > 100 µM (inactive)
COLO 205
  GI50: > 100 µM (inactive)
HCT-15
  GI50: > 100 µM
HL-60
  GI50: > 100 µM (inactive)
HOP-92
  GI50: > 100 µM (inactive)
KM-20L2
  GI50: > 72.1 µM (inactive)
Malme-3M
  GI50: > 100 µM (inactive)
NCI-H226
  GI50: > 100 µM (inactive)
NCI-H23
  GI50: > 100 µM (inactive)
NCI-H460
  GI50: > 100 µM (inactive)
NCI-H522
  GI50: > 100 µM (inactive)
OVCAR-5
  GI50: > 100 µM (inactive)
RXF 393
  GI50: > 100 µM (inactive)
SK-MEL-28
  GI50: > 100 µM (inactive)
SK-MEL-5
  GI50: > 100 µM (inactive)
SW-620
  GI50: > 100 µM (inactive)
UO-31
  GI50: > 100 µM (inactive)

## Cn1nc(-c2ccccc2)c(C(=O)/C=C/c2ccc(Cl)cc2)c(N2CCCC2)c1=O
CAKI-1
  GI50: 0.55 µM (active)
COLO 205
  GI50: 2.11 µM (inactive)
HCT-15
  GI50: 3.75 µM
HL-60
  GI50: 1.92 µM (inactive)
HOP-92
  GI50: 1.67 µM (inactive)
KM-20L2
  GI50: 3.78 µM (inactive)
NCI-H23
  GI50: 2.89 µM (inactive)
NCI-H460
  GI50: 3.86 µM (inactive)
NCI-H522
  GI50: 2.07 µM (inactive)
RXF 393
  GI50: 2.63 µM (inactive)
SK-MEL-28
  GI50: 3.76 µM (inactive)
SK-MEL-5
  GI50: 5.46 µM (inactive)
SK-OV-3
  GI50: 4.99 µM (inactive)
SW-620
  GI50: 4.02 µM (inactive)
UO-31
  GI50: 8.51 µM (inactive)

## CC1=NN(C(=O)c2ccc(Cl)cc2)C(=O)/C1=C/c1c(O)cc(O)c2ccccc12
CAKI-1
  GI50: > 100 µM (inactive)
COLO 205
  GI50: > 100 µM (inactive)
HL-60
  GI50: > 100 µM (inactive)
HOP-92
  GI50: > 100 µM (inactive)
KM-20L2
  GI50: > 100 µM (inactive)
Malme-3M
  GI50: > 100 µM (inactive)
NCI-H23
  GI50: > 100 µM (inactive)
NCI-H460
  GI50: > 100 µM (inactive)
NCI-H522
  GI50: > 100 µM (inactive)
OVCAR-5
  GI50: > 100 µM (inactive)
RXF 393
  GI50: > 100 µM (inactive)
SK-MEL-28
  GI50: > 100 µM (inactive)
SK-MEL-5
  GI50: > 100 µM (inactive)
SK-OV-3
  GI50: > 100 µM (inactive)
SW-620
  GI50: > 100 µM (inactive)
UO-31
  GI50: > 100 µM (inactive)

## O=C(c1ccccc1)N1C2C3CC(OCc4ccccc4)(OCc4ccccc4)C(O3)C21 (stereo unspecified)
CAKI-1
  GI50: > 100 µM (inactive)
COLO 205
  GI50: > 100 µM (inactive)
HCT-15
  GI50: > 100 µM
HL-60
  GI50: > 100 µM (inactive)
HOP-92
  GI50: > 100 µM (inactive)
KM-20L2
  GI50: > 100 µM (inactive)
Malme-3M
  GI50: > 100 µM (inactive)
NCI-H226
  GI50: > 100 µM (inactive)
NCI-H23
  GI50: > 100 µM (inactive)
NCI-H460
  GI50: > 100 µM (inactive)
NCI-H522
  GI50: > 100 µM (inactive)
OVCAR-5
  GI50: > 100 µM (inactive)
RXF 393
  GI50: > 100 µM (inactive)
SK-MEL-28
  GI50: > 100 µM (inactive)
SK-MEL-5
  GI50: > 100 µM (inactive)
SK-OV-3
  GI50: > 100 µM (inactive)
SW-620
  GI50: > 100 µM (inactive)
UO-31
  GI50: > 100 µM (inactive)

## COC(=O)C(CBr)CBr
BT-549
  GI50: 2.65 µM (inactive)
CAKI-1
  GI50: 5.51 µM (inactive)
COLO 205
  GI50: 1.27 µM (inactive)
DU-145
  GI50: 16.6 µM (inactive)
HCT-15
  GI50: 1.71 µM
HL-60
  GI50: 0.253 µM (active)
HOP-92
  GI50: 1.79 µM (inactive)
KM-20L2
  GI50: 6.76 µM (inactive)
Malme-3M
  GI50: 2.2 µM (inactive)
NCI-H226
  GI50: 13.3 µM (inactive)
NCI-H23
  GI50: 6.78 µM (inactive)
NCI-H460
  GI50: 14 µM (inactive)
NCI-H522
  GI50: 2.14 µM (inactive)
OVCAR-5
  GI50: 16.8 µM (inactive)
RXF 393
  GI50: 2.19 µM (inactive)
SK-MEL-28
  GI50: 3.77 µM (inactive)
SK-MEL-5
  GI50: 8.75 µM (inactive)
SK-OV-3
  GI50: 18.8 µM (inactive)
SW-620
  GI50: 1.27 µM (inactive)
UO-31
  GI50: 5.65 µM (inactive)

## CC(C)(C)OC(=O)c1cccnc1/C=N/O
CAKI-1
  GI50: > 100 µM (inactive)
COLO 205
  GI50: > 100 µM (inactive)
HCT-15
  GI50: 51.9 µM
HL-60
  GI50: > 100 µM (inactive)
HOP-92
  GI50: > 100 µM (inactive)
KM-20L2
  GI50: 51.4 µM (inactive)
Malme-3M
  GI50: > 100 µM (inactive)
NCI-H226
  GI50: > 100 µM (inactive)
NCI-H23
  GI50: > 100 µM (inactive)
NCI-H460
  GI50: 48.4 µM (inactive)
NCI-H522
  GI50: > 100 µM (inactive)
OVCAR-5
  GI50: > 100 µM (inactive)
RXF 393
  GI50: > 100 µM (inactive)
SK-MEL-28
  GI50: > 100 µM (inactive)
SK-MEL-5
  GI50: > 100 µM (inactive)
SK-OV-3
  GI50: > 100 µM (inactive)
SW-620
  GI50: 58.6 µM (inactive)
UO-31
  GI50: > 100 µM (inactive)
